This passage reports EC50 results from patent US20150344457A1, “METHODS OF INHIBITING PRMT5” (EPIZYME, INC., priority 2012, published 2015).

pEC50: −log10 of the molar value.

Test [1] has as its system Z-138 cells. Kind of test: Z-138 Proliferation Assay (Cell Titer Glo, 5 days). The test is classed as cell-based. To be noted: Homo sapiens. From the text: Z-138 Proliferation Assay
Z-138 suspension cells were purchased from ATCC (American Type Culture Collection, Manassas, Va.). RPMI/Glutamax medium, penicillin-streptomycin, heat inactivated fetal bovine serum were purchased from Life Technologies, Grand Island, N.Y., USA. V-bottom polypropylene 384-well plates were purchased from Greiner Bio-One, Monroe, N.C., USA. Cell culture 384-well white opaque plates were purchased from Perkin Elmer, Waltham, Mass., USA. Cell-Titer Gb® was purchased from Promega Corporation, Madison, Wis., USA. SpectraMax M5 plate reader was purchased from Molecular Devices LLC, Sunnyvale, Calif., USA.
Z-138 suspension cells were maintained in growth medium (RPMI 1640 supplemented with 10% v/v heat inactivated fetal bovine serum and cultured at 37° C. under 5% CO2. Under assay conditions, cells were incubated in assay medium (RPMI 1640 supplemented with 10% v/v heat inactivated fetal bovine serum and 100 units/mL penicillin-streptomycin) at 37° C. under 5% CO2.
For the assessment of the effect of compounds on the proliferation of the Z-138 cell line, exponentially growing cells were plated in 384-well white opaque plates at a density of 10,000 cells/ml in a final volume of 50 μl of assay medium. A compound source plate was prepared by performing triplicate nine-point 3-fold serial dilutions in DMSO, beginning at 10 mM (final top concentration of compound in the assay was 20 μM and the DMSO was 0.2%). A 100 nL aliquot from the compound stock plate was added to its respective well in the cell plate. […] After addition of compounds, assay plates were incubated for 5 days at 37° C., 5% CO2, relative humidity >90%.
Cell viability was measured by quantitation of ATP present in the cell cultures, adding 35 μl of Cell Titer Glo® reagent to the cell plates. Luminescence was read in the SpectraMax M5 microplate reader. The concentration of compound inhibiting cell viability by 50% was determined using a 4-parametric fit of the normalized dose response curves.

Test [2] has as its system Z-138 cells. Kind of test: Z-138 Methylation Assay (In Cell Western for symmetric di-methyl arginine and DNA content). It is filed as cell-based. To be noted: Homo sapiens. From the text:
Z-138 suspension cells were purchased from ATCC (American Type Culture Collection, Manassas, Va.). RPMI/Glutamax medium, penicillin-streptomycin, heat inactivated fetal bovine serum, and D-PBS were purchased from Life Technologies, Grand Island, N.Y., USA. Odyssey blocking buffer, 800CW goat anti-rabbit IgG (H+L) antibody, and Licor Odyssey infrared scanner were purchased from Licor Biosciences, Lincoln, Nebr., USA. Symmetric di-methyl arginine antibody was purchased from EMD Millipore, Billerica, Mass., USA. 16% Paraformaldehyde was purchased from Electron Microscopy Sciences, Hatfield, Pa., USA.
Z-138 suspension cells were maintained in growth medium (RPMI 1640 supplemented with 10% v/v heat inactivated fetal bovine serum and 100 units/mL penicillin-streptomycin) and cultured at 37° C. under 5% CO2.
Cell Treatment, in Cell Western (ICW) for Detection of Symmetric Di-Methyl Arginine and DNA Content.
Z-138 cells were seeded in assay medium at a concentration of 50,000 cells per mL to a 384-well cell culture plate with 50 μL per well. Compound (100 nL) from 384 well source plates was added directly to 384 well cell plate. Plates were incubated at 37° C., 5% CO2 for 96 hours. After four days of incubation, 40 μL of cells from incubated plates were added to poly-D-lysine coated 384 well culture plates (BD Biosciences 356697). Plates were incubated at room temperature for 30 minutes then incubated at 37° C., 5% CO2 for 5 hours. After the incubation, 40 μL per well of 8% paraformaldehyde in PBS (16% paraformaldahyde was diluted to 8% in PBS) was added to each plate and incubated for 30 minutes. Plates were transferred to a Biotek 405 plate washer and washed 5 times with 100 μL per well of wash buffer (1×PBS with 0.1% Triton X-100 (v/v)). Next 30 μL per well of Odyssey blocking buffer were added to each plate and incubated 1 hour at room temperature. Blocking buffer was removed and 20 μL per well of primary antibody was added (symmetric di-methyl arginine diluted 1:100 in Odyssey buffer with 0.1% Tween 20 (v/v)) and plates were incubated overnight (16 hours) at 4° C. Plates were washed 5 times with 100 μL per well of wash buffer. Next 20 μL per well of secondary antibody was added (1:200 800CW goat anti-rabbit IgG (H+L) antibody, 1:1000 DRAQS (Biostatus limited) in Odyssey buffer with 0.1% Tween 20 (v/v)) and incubated for 1 hour at room temperature. The plates were washed 5 times with 100 μL per well wash buffer then 1 time with 100 μL per well of water. Plates were allowed to dry at room temperature then imaged on the Licor Odyssey machine which measures integrated intensity at 700 nm and 800 nm wavelengths. Both 700 and 800 channels were scanned.
First, the ratio for each well was determined by:
Each plate included fourteen control wells of DMSO only treatment (minimum inhibition) as well as fourteen control wells for maximum inhibition treated with 3 μM of a reference compound (Background wells). The average of the ratio values for each control type was calculated and used to determine the percent inhibition for each test well in the plate. Reference compound was serially diluted three-fold in DMSO for a total of nine test concentrations, beginning at 3 μM. Percent inhibition was determined and IC50 curves were generated using triplicate wells per concentration of compound.

As for `Cn1cnc2ccc(-c3ccnc(NC[C@@H](O)CN4CCc5ccccc5C4)c3)cc21` [Compound D276], the pEC50 (as a rule, the negative decadic logarithm of the EC50, by convention in mol/L) in the test with Z-138 cells [1] (Table D-2) was 5.00 to 6.00; in the test on Z-138 cells [2] (Table D-2, read-out: ICW EC50), 5.00 to 6.00.
Regarding `O[C@H](COc1cccc(-c2cccc3cccnc23)c1)CN1CCc2ccccc2C1` [Compound D258], the pEC50 in the test on Z-138 cells [1] (Table D-2) was below 4.70; in the test on Z-138 cells [2] (Table D-2, read-out: ICW EC50), 5.00 to 6.00.
As for `Cn1cnc2ccc(OCC(=O)NCC(O)CN3CCc4ccccc4C3)cc21` (stereo not shown) [Compound A30], the pEC50 was 4.30 to 5.00 in the test on Z-138 cells [1] (120 h, Table A-2, 5 days, top concentration 20 μM) and 6.00 to 7.00 in the test on Z-138 cells [2] (Table A-2, 96 hours, symmetric di-methyl arginine, read-out: ICW EC50).
In the case of `Cn1cncc1C(=O)Nc1cccc(OC[C@H](O)CN2CCc3ccccc3C2)c1` [Compound D259], the pEC50 with Z-138 cells [1] (Table D-2) is 4.40 to 5.00; with Z-138 cells [2] (Table D-2, read-out: ICW EC50) it was 6.00 to 7.00.
Taken in the same sequence, the figures for `Cn1cnc2ccc(-c3cccc(OC[C@@H](O)CN4CCc5ccccc5C4)c3)cc21` [Compound D173] were 5.00 to 6.00 and 5.00 to 6.00.
